Key:
[1] = Half life was determined; assay type: ADME; details: rat
[2] = Toxicity in mice 24 hr after ip administration; assay type: organism-based; details: mouse, in vivo
[3] = Rate constant was determined; assay type: functional
[4] = Second order rate constant was determined; assay type: functional

CC(=O)N=C1C=CC(=O)C=C1
half-life [1]: 11 min | LD50 at 24 h [2]: 20 mg/kg | Rate constant [3]: 0.00011 M/s | Second order [4]: 0.625 M/s

CC(=O)Nc1ccc(O)cc1 [ACETAMINOPHEN]
LD50 at 24 h [2]: 500 mg/kg

Reference: ChEMBL document CHEMBL1122105, “Synthesis, decomposition kinetics, and preliminary toxicological studies of pure N-acetyl-p-benzoquinone imine, a proposed toxic metabolite of acetaminophen” (J Med Chem, 1982)
